Measured values reported in ChEMBL document CHEMBL4145516, “Rational design of novel TLR4 ligands by in silico screening and their functional and structural characterization in vitro” (2018).
Active and inactive are the calls of the source. No cut-off for these calls is given here.

Columns and labels:
[1] = system: PBMC; experiment: Immunostimulatory activity in human PBMC assessed as increase in IL-6 release at 10 uM after 24 hrs by ELISA; format: functional
[2] = target: Toll-like receptor 4 (Homo sapiens) (UniProt O00206); experiment: Agonist activity at human TLR4 expressed in HEK-blue cells coexpressing MD2 at 0.99 10^-5M by SEAP reporter gene assay; format: cell-based
[3] = target: Toll-like receptor 4 (Homo sapiens) (UniProt O00206); experiment: Agonist activity at human TLR4 expressed in HEK-blue cells coexpressing MD2 at 1.06 10^-5M by SEAP reporter gene assay relative to MPLA; format: cell-based
[4] = target: Toll-like receptor 4 (Homo sapiens) (UniProt O00206); experiment: Agonist activity at human TLR4 expressed in HEK-blue cells coexpressing MD2 at 1.07 10^-5M by SEAP reporter gene assay; format: cell-based
[5] = target: Toll-like receptor 4 (Homo sapiens) (UniProt O00206); experiment: Agonist activity at human TLR4 expressed in HEK-blue cells coexpressing MD2 at 1.07 10^-5M by SEAP reporter gene assay relative to MPLA; format: cell-based
[6] = target: Toll-like receptor 4 (Homo sapiens) (UniProt O00206); experiment: Agonist activity at human TLR4 expressed in HEK-blue cells coexpressing MD2 at 1.11 10^-5M by SEAP reporter gene assay; format: cell-based
[7] = target: Toll-like receptor 4 (Homo sapiens) (UniProt O00206); experiment: Agonist activity at human TLR4 expressed in HEK-blue cells coexpressing MD2 at 1.11 10^-5M by SEAP reporter gene assay relative to MPLA; format: cell-based
[8] = target: Toll-like receptor 4 (Homo sapiens) (UniProt O00206); experiment: Agonist activity at human TLR4 expressed in HEK-blue cells coexpressing MD2 at 1.15 10^-5M by SEAP reporter gene assay; format: cell-based
[9] = target: Toll-like receptor 4 (Homo sapiens) (UniProt O00206); experiment: Agonist activity at human TLR4 expressed in HEK-blue cells coexpressing MD2 at 500 ng/ml by SEAP reporter gene assay relative to MPLA; format: cell-based

Sequence of Toll-like receptor 4 (Homo sapiens) (O00206 whole entry): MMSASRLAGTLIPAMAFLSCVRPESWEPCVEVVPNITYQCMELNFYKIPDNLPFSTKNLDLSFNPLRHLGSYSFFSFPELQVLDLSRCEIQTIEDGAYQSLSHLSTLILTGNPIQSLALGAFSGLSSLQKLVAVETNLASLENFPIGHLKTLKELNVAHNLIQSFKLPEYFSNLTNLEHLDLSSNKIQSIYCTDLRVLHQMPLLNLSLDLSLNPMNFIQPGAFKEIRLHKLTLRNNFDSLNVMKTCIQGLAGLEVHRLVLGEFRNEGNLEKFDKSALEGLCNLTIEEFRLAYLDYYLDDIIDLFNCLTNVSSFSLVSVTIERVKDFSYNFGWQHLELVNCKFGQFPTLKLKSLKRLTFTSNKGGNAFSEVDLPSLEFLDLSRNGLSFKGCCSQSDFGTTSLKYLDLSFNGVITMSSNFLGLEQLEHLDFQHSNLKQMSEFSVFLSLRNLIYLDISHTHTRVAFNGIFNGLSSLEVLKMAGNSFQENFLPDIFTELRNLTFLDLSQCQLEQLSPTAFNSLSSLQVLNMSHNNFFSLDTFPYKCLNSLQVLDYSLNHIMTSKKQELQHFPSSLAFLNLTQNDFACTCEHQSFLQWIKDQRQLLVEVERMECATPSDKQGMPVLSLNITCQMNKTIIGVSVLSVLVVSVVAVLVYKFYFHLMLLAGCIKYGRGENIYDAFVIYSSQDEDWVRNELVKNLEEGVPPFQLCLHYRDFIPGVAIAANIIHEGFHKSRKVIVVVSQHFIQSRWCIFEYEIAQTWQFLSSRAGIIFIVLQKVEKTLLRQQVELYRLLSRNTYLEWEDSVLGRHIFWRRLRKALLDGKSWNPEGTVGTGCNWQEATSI

Row | Structure (SMILES) | Activity [1] | also measured
1 | O=C(CCN1C(=O)C2C3c4ccccc4C(c4ccccc43)C2C1=O)NC1CCCCCC1 (stereo not drawn) | 7.3 pg/mL | –
2 | O=C(CCN1C(=O)C2C3c4ccccc4C(c4ccccc43)C2C1=O)NCc1ccc(Cl)c(Cl)c1 (stereo not drawn) | inactive | Activity [2]: inactive
3 | O=C(CCN1C(=O)C2C3c4ccccc4C(c4ccccc43)C2C1=O)NC1CCCCC1 (stereo not drawn) | inactive | –
4 | O=C(CCN1C(=O)C2C3c4ccccc4C(c4ccccc43)C2C1=O)NCc1ccc(Cl)cc1 (stereo not drawn) | 0.725 pg/mL | Activity [3]: 50%
5 | CC(C)CNC(=O)CCN1C(=O)C2C3c4ccccc4C(c4ccccc43)C2C1=O (stereo not drawn) | inactive | –
6 | COc1ccc(CNC(=O)CCN2C(=O)C3C4c5ccccc5C(c5ccccc54)C3C2=O)cc1 (stereo not drawn) | 219.76 pg/mL | Activity [4]: Active; Activity [5]: 50%
7 | O=C(CCN1C(=O)C2C3c4ccccc4C(c4ccccc43)C2C1=O)NC1CCCCCCC1 (stereo not drawn) | 212.56 pg/mL | –
8 | Cc1ccc(CNC(=O)CCN2C(=O)C3C4c5ccccc5C(c5ccccc54)C3C2=O)cc1 (stereo not drawn) | 5.76 pg/mL | Activity [6]: Active; Activity [7]: 50%
9 | CC(C)(C)NC(=O)CCN1C(=O)C2C3c4ccccc4C(c4ccccc43)C2C1=O (stereo not drawn) | inactive | –
10 | O=C(CCN1C(=O)C2C3c4ccccc4C(c4ccccc43)C2C1=O)NCc1ccccc1 (stereo not drawn) | inactive | Activity [8]: inactive
11 | CC(=O)Nc1ccc(-c2ccc(N3C(=O)C4C5c6ccccc6C(c6ccccc65)C4C3=O)cc2)cc1 (stereo not drawn) | – | Activity [9]: 30%
